Experiments:
human AT1 receptor = target: T1, human AT1 receptor (Homo sapiens, UniProt P30556); test: AT1 receptor antagonistic activity: [125I]-angiotensin II binding assay on human AT1 receptor-expressing CHO-K1 cellular membrane fraction; conditions: 22.5 pM [125I]-angiotensin II, 1 hr room temperature
T1 construct: expressed in transfected cells; membrane fraction
T1 sequence (P30556 1-359): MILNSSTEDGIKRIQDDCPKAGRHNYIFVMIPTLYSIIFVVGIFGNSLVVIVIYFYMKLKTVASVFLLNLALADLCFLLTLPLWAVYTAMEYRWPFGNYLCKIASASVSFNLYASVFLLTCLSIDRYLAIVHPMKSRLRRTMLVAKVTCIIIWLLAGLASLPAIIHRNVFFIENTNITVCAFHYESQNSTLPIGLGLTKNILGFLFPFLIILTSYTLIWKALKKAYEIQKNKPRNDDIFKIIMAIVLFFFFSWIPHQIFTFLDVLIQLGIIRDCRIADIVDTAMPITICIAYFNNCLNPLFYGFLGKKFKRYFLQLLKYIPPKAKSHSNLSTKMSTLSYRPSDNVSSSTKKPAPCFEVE
Outline: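 Competition binding used radiolabelled angiotensin II on stably transfected CHO-K1 membrane fractions in Tris pH 7.4/MgCl2 buffer, optionally containing 0.3 mg/mL fatty acid-free BSA, 1 hr at room temperature. Filtration onto GF/C separated bound tracer, and nonspecific binding was measured with candesartan.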

human PPARγ = target: T2, human PPARγ (Homo sapiens, UniProt P37231); test: PPARγ agonistic activity: luciferase reporter assay in PPARγ:RXRα:4ERPP/CHO-K1 cells; type: cell-based; conditions: CHO-K1, test compound 10^−6 M; luciferase activity of control compound X (1 μM) = 100%, non-administration group = 0%
T2 construct: expressed in transfected cells
T2 sequence (P37231 1-477 isoform P37231-2): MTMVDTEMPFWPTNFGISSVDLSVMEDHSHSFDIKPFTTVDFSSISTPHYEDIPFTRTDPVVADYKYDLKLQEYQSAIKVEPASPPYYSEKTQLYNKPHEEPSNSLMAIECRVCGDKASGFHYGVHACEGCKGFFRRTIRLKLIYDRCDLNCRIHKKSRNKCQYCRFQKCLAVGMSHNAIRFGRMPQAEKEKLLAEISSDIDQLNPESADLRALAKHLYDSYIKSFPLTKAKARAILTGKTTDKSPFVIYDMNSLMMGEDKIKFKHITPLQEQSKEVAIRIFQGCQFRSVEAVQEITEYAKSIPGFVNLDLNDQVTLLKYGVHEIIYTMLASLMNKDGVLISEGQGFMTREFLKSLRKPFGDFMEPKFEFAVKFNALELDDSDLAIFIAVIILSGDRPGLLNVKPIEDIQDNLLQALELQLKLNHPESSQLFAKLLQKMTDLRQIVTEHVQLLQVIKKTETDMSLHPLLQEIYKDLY
T2 sequence (P19793 1-462 partner): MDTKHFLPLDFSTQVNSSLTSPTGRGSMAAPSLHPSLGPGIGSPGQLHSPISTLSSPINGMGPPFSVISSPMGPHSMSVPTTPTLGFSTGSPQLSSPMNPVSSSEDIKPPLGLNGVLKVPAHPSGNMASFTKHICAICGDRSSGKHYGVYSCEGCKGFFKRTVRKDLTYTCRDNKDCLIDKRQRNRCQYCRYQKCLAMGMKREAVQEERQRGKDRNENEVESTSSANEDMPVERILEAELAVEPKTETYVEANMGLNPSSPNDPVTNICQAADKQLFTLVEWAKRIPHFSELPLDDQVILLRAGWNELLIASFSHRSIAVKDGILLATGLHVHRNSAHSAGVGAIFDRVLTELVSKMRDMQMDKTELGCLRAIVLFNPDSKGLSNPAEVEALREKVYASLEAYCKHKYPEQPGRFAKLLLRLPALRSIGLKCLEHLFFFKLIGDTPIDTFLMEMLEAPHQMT
Outline: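 CHO-K1 cells stably carrying hPPARγ/RXRα and a 4ERPP luciferase reporter, dosed with test compound for 1 day at 37 °C in Ham's F12 with 0.1% fatty acid-free BSA. Luciferase read by luminescence; activity given as % of 1 μM control compound X (100%) versus untreated (0%).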

Compound `CCCc1c(Cc2ccc(-c3ccccc3-c3noc(=O)[nH]3)cc2)c(=O)n(C2CCC(OCCOC)CC2)c2ncnn12` (centres unmarked) [Example 154, 4-[4-(2-methoxyethoxy)cyclohexyl]-6-{[2′-(5-oxo-4,5-dihydro-1,2,4-oxadiazol-3-yl)biphenyl-4-yl]methyl}-7-propyl[1,2,4]triazolo[1,5-a]pyrimidin-5(4H)-one] has an IC50 (human AT1 receptor) of 2.1 nM and an activation at 1 µM (human PPARγ) of 33%.
Work on `CCCc1c(Cc2ccc(-c3ccccc3-c3noc(=O)[nH]3)cc2)c(=O)n([C@H]2CC[C@H](OCC(C)=O)CC2)c2ncnn12` [Example 215, 6-{[2′-(5-oxo-4,5-dihydro-1,2,4-oxadiazol-3-yl)biphenyl-4-yl]methyl}-4-[trans-4-(2-oxopropoxy)cyclohexyl]-7-propyl[1,2,4]triazolo[1,5-a]pyrimidin-5(4H)-one] yielded an IC50 (human AT1 receptor) of 1.9 nM and an activation at 1 µM (human PPARγ) of 24%.
`CCCCc1c(Cc2ccc(-c3ccccc3-c3noc(=O)[nH]3)cc2)c(=O)n([C@H]2CC[C@H](OCC(C)(C)O)CC2)c2ccnn12` [Example 434, 7-butyl-4-[trans-4-(2-hydroxy-2-methylpropoxy)cyclohexyl]-6-{[2′-(5-oxo-4,5-dihydro-1,2,4-oxadiazol-3-yl)biphenyl-4-yl]methyl}pyrazolo[1,5-a]pyrimidin-5(4H)-one] gave an IC50 (human AT1 receptor) of 2.1 nM and an activation at 1 µM (human PPARγ) of 25%.
`CCCc1c(Cc2ccc(-c3ccccc3-c3nnn[nH]3)cc2)c(=O)n([C@H]2CC[C@H](c3cnco3)CC2)c2ncnn12` [Example 185, 4-[trans-4-(1,3-oxazol-5-yl)cyclohexyl]-7-propyl-6-{[2′-(1H-tetrazol-5-yl)biphenyl-4-yl]methyl}[1,2,4]triazolo[1,5-a]pyrimidin-5(4H)-one] was tested, and the IC50 (human AT1 receptor) was 2.3 nM and the activation at 1 µM (human PPARγ) was 22%.
`CCCc1c(Cc2ccc(-c3ccccc3-c3noc(=O)[nH]3)cc2)c(=O)n([C@H]2CC[C@H](Oc3ccon3)CC2)c2ncnn12` [Example 282, 4-[trans-4-(isoxazol-3-yloxy)cyclohexyl]-6-{[2′-(5-oxo-4,5-dihydro-1,2,4-oxadiazol-3-yl)biphenyl-4-yl]methyl}-7-propyl[1,2,4]triazolo[1,5-a]pyrimidin-5(4H)-one] was tested, and the IC50 (human AT1 receptor) was 2.2 nM and the activation at 1 µM (human PPARγ) was 53%.
`CCCc1c(Cc2ccc(-c3ccccc3-c3noc(=O)[nH]3)cc2)c(=O)n([C@H]2CC[C@H](OCC3(CO)CCC3)CC2)c2ncnn12` [Example 228, 4-(trans-4-{[1-(hydroxymethyl)cyclobutyl]methoxy}cyclohexyl)-6-{[2′-(5-oxo-4,5-dihydro-1,2,4-oxadiazol-3-yl)biphenyl-4-yl]methyl}-7-propyl[1,2,4]triazolo[1,5-a]pyrimidin-5(4H)-one] gave an IC50 (human AT1 receptor) of 1.5 nM and an activation at 1 µM (human PPARγ) of 27%.
With `CCCc1c(Cc2ccc(-c3ccccc3-c3noc(=O)[nH]3)cc2)c(=O)n([C@H]2CC[C@H](Oc3ccc(OC)cc3)CC2)c2ncnn12` [Example 271, 4-[trans-4-(4-methoxyphenoxy)cyclohexyl]-6-{[2′-(5-oxo-4,5-dihydro-1,2,4-oxadiazol-3-yl)biphenyl-4-yl]methyl}-7-propyl[1,2,4]triazolo[1,5-a]pyrimidin-5(4H)-one] the IC50 (human AT1 receptor) was 2.4 nM and the activation at 1 µM (human PPARγ) was 43%.
Compound `CCCc1c(Cc2ccc(-c3ccccc3-c3noc(=O)[nH]3)cc2)c(=O)n(C2CCC3(CC2)OCC(CO)O3)c2ncnn12` (centres unmarked) [Example 294, 4-[2-(hydroxymethyl)-1,4-dioxaspiro[4.5]dec-8-yl]-6-{[2′-(5-oxo-4,5-dihydro-1,2,4-oxadiazol-3-yl)biphenyl-4-yl]methyl}-7-propyl[1,2,4]triazolo[1,5-a]pyrimidin-5(4H)-one] has an IC50 (human AT1 receptor) of 2.1 nM and an activation at 1 µM (human PPARγ) of 31%.
`CCCc1c(Cc2ccc(-c3ccccc3-c3noc(=O)[nH]3)cc2)c(=O)n(C2CCC3(CC2)OCCO3)c2nc(C)nn12` [Example 292, 4-(1,4-dioxaspiro[4.5]dec-8-yl)-2-methyl-6-{[2′-(5-oxo-4,5-dihydro-1,2,4-oxadiazol-3-yl)biphenyl-4-yl]methyl}-7-propyl[1,2,4]triazolo[1,5-a]pyrimidin-5(4H)-one] gave an IC50 (human AT1 receptor) of 1.9 nM and an activation at 1 µM (human PPARγ) of 46%.
`CCCc1c(Cc2ccc(-c3ccccc3-c3noc(=O)[nH]3)cc2)c(=O)n([C@H]2CC[C@@H](Oc3ccc(OC)cc3)CC2)c2ncnn12` [Example 272, 4-[cis-4-(4-methoxyphenoxy)cyclohexyl]-6-{[2′-(5-oxo-4,5-dihydro-1,2,4-oxadiazol-3-yl)biphenyl-4-yl]methyl}-7-propyl[1,2,4]triazolo[1,5-a]pyrimidin-5(4H)-one] showed an IC50 (human AT1 receptor) of 2.8 nM and an activation at 1 µM (human PPARγ) of 28%.
For `CCCc1c(Cc2ccc(-c3ccccc3-c3noc(=O)[nH]3)cc2)c(=O)n([C@H]2CC[C@H](Oc3ccc(O)cc3)CC2)c2ncnn12` [Example 273, 4-[trans-4-(4-hydroxyphenoxy)cyclohexyl]-6-{[2′-(5-oxo-4,5-dihydro-1,2,4-oxadiazol-3-yl)biphenyl-4-yl]methyl}-7-propyl[1,2,4]triazolo[1,5-a]pyrimidin-5(4H)-one], the IC50 (human AT1 receptor) was 1.7 nM and the activation at 1 µM (human PPARγ) was 48%.
`CCCc1c(Cc2ccc(-c3ccccc3-c3noc(=O)[nH]3)cc2)c(=O)n(C2CCCOC2)c2ncnn12` (centres unmarked) [Example 124, 6-{[2′-(5-oxo-4,5-dihydro-1,2,4-oxadiazol-3-yl)biphenyl-4-yl]methyl}-7-propyl-4-(tetrahydro-2H-pyran-3-yl)[1,2,4]triazolo[1,5-a]pyrimidin-5(4H)-one] was tested, and the IC50 (human AT1 receptor) was 2.4 nM and the activation at 1 µM (human PPARγ) was 21%.
Work on `CCCc1c(Cc2ccc(-c3ccccc3-c3noc(=O)[nH]3)cc2F)c(=O)n(C2CCOC(C)(C)C2)c2nc(C)nn12` (centres unmarked) [Example 136, 4-(2,2-dimethyltetrahydro-2H-pyran-4-yl)-6-{[3-fluoro-2′-(5-oxo-4,5-dihydro-1,2,4-oxadiazol-3-yl)biphenyl-4-yl]methyl}-2-methyl-7-propyl[1,2,4]triazolo[1,5-a]pyrimidin-5(4H)-one] yielded an IC50 (human AT1 receptor) of 1.3 nM and an activation at 1 µM (human PPARγ) of 17%.
Compound `CCCCc1c(Cc2ccc(-c3ccccc3-c3noc(=O)[nH]3)cc2)c(=O)n(C2CCC(OC)CC2)c2ncnn12` (centres unmarked) [Example 148, 7-butyl-4-(4-methoxycyclohexyl)-6-{[2′-(5-oxo-4,5-dihydro-1,2,4-oxadiazol-3-yl)biphenyl-4-yl]methyl}[1,2,4]triazolo[1,5-a]pyrimidin-5(4H)-one] has an IC50 (human AT1 receptor) of 1.9 nM and an activation at 1 µM (human PPARγ) of 52%.
`CCCc1c(Cc2ccc(-c3ccccc3-c3noc(=O)[nH]3)cc2)c(=O)n(C2C=CCCC2)c2nc(C)nn12` (centres unmarked) [Example 74, 4-(cyclohex-2-en-1-yl)-2-methyl-6-{[2′-(5-oxo-4,5-dihydro-1,2,4-oxadiazol-3-yl)biphenyl-4-yl]methyl}-7-propyl[1,2,4]triazolo[1,5-a]pyrimidin-5(4H)-one] showed an IC50 (human AT1 receptor) of 2.1 nM and an activation at 1 µM (human PPARγ) of 25%.
Compound `CCCCc1c(Cc2ccc(-c3ccccc3-c3nnn[nH]3)cc2F)c(=O)n([C@H]2CC[C@H](OCC(C)(C)O)CC2)c2ncnn12` [Example 457, 7-butyl-6-{[3-fluoro-2′-(1H-tetrazol-5-yl)biphenyl-4-yl]methyl}-4-[trans-4-(2-hydroxy-2-methylpropoxy)cyclohexyl][1,2,4]triazolo[1,5-a]pyrimidin-5(4H)-one] has an IC50 (human AT1 receptor) of 1.8 nM and an activation at 1 µM (human PPARγ) of 19%.

Source: patent publication US8283353B2, “Fused ring compound and use thereof” (Takeda Pharmaceutical Company Limited, priority 2009, dated 2012)
